The text below walks through data of ChEMBL document CHEMBL2021782, “Drug-to-genome-to-drug, step 2: reversing selectivity in a series of antiplasmodial compounds” (J Med Chem, 2012).

Each structure is given as a SMILES string. Bounds are passed on as bounds.

Data set [1] is described as follows: Cytotoxicity against human MRC5 SV2 cells after 72 hrs using resazurin by fluorimetry. The class given is cell-based. (In general: The colour change of resazurin is a common sign of viable cells or microbes.)
Data set [2] is described as follows: Selectivity ratio of CC50 for human MRC5 SV2 cells to IC50 for chloroquine-sensitive Plasmodium falciparum GHA strain. The class given is ADME, cell-based. The following applies: read-out: Ratio CC50/IC50.
The test system of data set [3] is Plasmodium falciparum. As to the kind of experiment: Antiplasmodial activity against chloroquine-sensitive Plasmodium falciparum GHA infected in human erythrocytes after 72 hrs using malstat staining by spectrophotometry. The class given is functional, organism-based.
Data set [4] deals with cGMP-specific 3',5'-cyclic phosphodiesterase (Bos taurus, UniProt Q28156). Description: Inhibition of bovine PDE5 after 24 hrs by time-resolved fluorescence resonance energy transfer assay.
The nature of data set [5]: Selectivity index, ratio of IC50 for chloroquine-sensitive Plasmodium falciparum K1 to IC50 for bovine PDE5.
Data set [6] relates to Plasmodium falciparum. Description: Antiplasmodial activity against chloroquine-sensitive Plasmodium falciparum K1 infected in human erythrocytes after 72 hrs using malstat staining by spectrophotometry. The class given is functional, organism-based. The following applies: K1, 72 h.
A short description of data set [7]: Selectivity index, ratio of IC50 for chloroquine-sensitive Plasmodium falciparum GHA to IC50 for bovine PDE5.

For orientation: CC50 means the concentration giving 50% cytotoxicity. Broadly, the IC50 is the concentration at which inhibition is half-maximal. Turning to `O=C1[C@H]2Cc3c([nH]c4ccccc34)[C@@H](c3ccc(OC(F)F)cc3)N2C(=O)CN1[C@@H]1CCN(Cc2ccccc2)C1`, the CC50 at 72 h in data set [1] is over 64 µM. The selectivity ratio in data set [2] was over 6. Besides, the IC50 with Plasmodium falciparum [3] was 11 µM.

Compound `COc1ccc([C@@H]2c3[nH]c4ccccc4c3C[C@@H]3C(=O)N([C@@H]4CCN(Cc5ccccc5)C4)CC(=O)N23)cc1O` returned a CC50 at 72 h in data set [1] of 22 µM. Further, the half-maximal inhibitory concentration (IC50) in data set [4] was determined as 0.056 µM; in the data set with Plasmodium falciparum [3], 0.61 µM. The selectivity ratio in data set [2] was 36.

In data set [1], `CCCCN1CC[C@@H](N2CC(=O)N3[C@H](c4ccc5c(c4)OCO5)c4[nH]c5ccccc5c4C[C@@H]3C2=O)C1` displayed a CC50 at 72 h of under 1 µM. For the same compound, the selectivity ratio in data set [2] was under 1. This compound also gave an IC50 with Plasmodium falciparum [3] of 12 µM.

As for `O=C1[C@H]2Cc3c([nH]c4ccccc34)[C@@H](c3ccc4nsnc4c3)N2C(=O)CN1[C@@H]1CCN(Cc2ccccc2)C1`, the CC50 at 72 h in data set [1] turned out to be 30 µM. The IC50 in data set [4] is 0.028 µM; in the data set with Plasmodium falciparum [3], 0.6 µM. Further, in data set [2], the selectivity ratio came out at 50.

The compound `COc1ccc([C@@H]2c3[nH]c4ccccc4c3C[C@@H]3C(=O)N(C)CC(=O)N23)cc1OC` yielded a CC50 at 72 h in data set [1] of over 64 µM. Besides, the IC50 in data set [4] is over 10 µM; in the data set on Plasmodium falciparum [3], over 64 µM. The selectivity ratio in data set [2] was over 64.

On to `O=C1[C@H]2Cc3c([nH]c4ccccc34)[C@@H](c3ccc4c(c3)OCO4)N2C(=O)CN1[C@@H]1CCN(CCCCCO)C1`, for which it took 3 µM to reach half-maximal cytotoxicity in data set [1] (CC50 at 72 h). In addition, the selectivity ratio in data set [2] was determined as 3. In addition, in the data set with Plasmodium falciparum [3], 12 µM corresponded to half-maximal inhibition (IC50).

Take `CN(C)C(=O)CN1CC[C@@H](N2CC(=O)N3[C@H](c4ccc5c(c4)OCO5)c4[nH]c5ccccc5c4C[C@@H]3C2=O)C1`: the CC50 at 72 h in data set [1] is over 32 µM. The IC50 in data set [4] was determined as 0.003 µM; in the data set on Plasmodium falciparum [3], 2 µM. In data set [2], the selectivity ratio was over 32.

Take `O=C1[C@H]2Cc3c([nH]c4ccccc34)[C@@H](c3ccc4c(c3)OCO4)N2C(=O)CN1[C@@H]1CCN(CCc2ccccc2)C1`: the CC50 at 72 h in data set [1] stood at 1 µM. Moreover, the selectivity ratio in data set [2] worked out at 1. The compound also showed an IC50 in the data set on Plasmodium falciparum [3] of 5.3 µM.

Turning to `COc1ccc([C@@H]2c3[nH]c4ccccc4c3C[C@@H]3C(=O)N([C@@H]4CCN(Cc5ccc6c(c5)OCO6)C4)CC(=O)N23)cc1OC`, the Ratio IC50 in data set [5] was over 10. Further, the IC50 in the data set with Plasmodium falciparum [6] was 0.95 µM; in data set [4] it was over 10 µM. This compound gave a CC50 at 72 h in data set [1] of 25 µM. In addition, the selectivity ratio in data set [2] worked out at 25.

Take `COc1ccc([C@@H]2c3[nH]c4ccccc4c3C[C@@H]3C(=O)N([C@@H]4CCN(Cc5nccn5C)C4)CC(=O)N23)cc1OC`: the Ratio IC50 in data set [5] was found to be 3. Besides, the figures for the IC50 (in the data set with Plasmodium falciparum [6]; in data set [4]) were 1.6 µM and 5.6 µM, respectively. The compound further came in with a CC50 at 72 h in data set [1] of 37 µM. The selectivity ratio in data set [2] was found to be 37.

With `CC(C)(C)OC(=O)NCCN1CC[C@@H](N2CC(=O)N3[C@H](c4ccc5c(c4)OCO5)c4[nH]c5ccccc5c4C[C@@H]3C2=O)C1`, the Ratio IC50 in data set [7] was found to be 0.018. This compound also gave a CC50 at 72 h in data set [1] of 154 µM. The IC50 in data set [4] worked out at 0.001 µM; in the data set on Plasmodium falciparum [3] it was 0.22 µM. The selectivity ratio in data set [2] was determined as 154.

`O=C1[C@H]2Cc3c([nH]c4ccccc34)[C@@H](c3ccc4c(c3)OCO4)N2C(=O)CN1[C@@H]1CCN(CC2CCCCC2)C1` had a CC50 at 72 h in data set [1] of 7 µM. The selectivity ratio in data set [2] was 7. In addition, 0.9 µM corresponded to half-maximal inhibition in the data set with Plasmodium falciparum [3] (IC50).

Regarding `O=C1[C@H]2Cc3c([nH]c4ccccc34)[C@@H](c3ccc4nnnn4c3)N2C(=O)CN1[C@@H]1CCN(Cc2ccccc2)C1`, in data set [1], it took 21 µM to reach half-maximal cytotoxicity (CC50 at 72 h). Besides, the selectivity ratio in data set [2] amounted to 3. Also, the IC50 with Plasmodium falciparum [3] was determined as 7 µM.

For `CN(C)c1ccc(CN2CC[C@@H](N3CC(=O)N4[C@H](c5ccc6c(c5)OCO6)c5[nH]c6ccccc6c5C[C@@H]4C3=O)C2)cc1`, the CC50 at 72 h in data set [1] is under 1 µM. The selectivity ratio in data set [2] was under 1. Further, in the data set on Plasmodium falciparum [3], the 50% inhibitory concentration (IC50) came out at 7 µM.

Turning to `O=C1[C@H]2Cc3c([nH]c4ccccc34)[C@@H](c3ccc4c(c3)OCO4)N2C(=O)CN1[C@@H]1CCN(CCOc2ccccc2)C1`, half-maximal cytotoxicity in data set [1] (CC50 at 72 h) was put at 11 µM. Further, the selectivity ratio in data set [2] is 11. For the same compound, in the data set on Plasmodium falciparum [3], the IC50 is 0.7 µM.

Turning to `Cn1ccnc1CN1CC[C@@H](N2CC(=O)N3[C@H](c4ccc5c(c4)OCO5)c4[nH]c5ccccc5c4C[C@@H]3C2=O)C1`, the Ratio IC50 in data set [7] is 0.003. The compound further displayed a CC50 at 72 h in data set [1] of 50 µM. Moreover, the figures for the concentration for half-maximal inhibition (IC50) (in data set [4]; with Plasmodium falciparum [3]) were 0.001 µM and 0.8 µM, respectively. Besides, in data set [2], the selectivity ratio turned out to be 50.

Regarding `O=C1[C@H]2Cc3c([nH]c4ccccc34)[C@@H](c3ccc4c(c3)OCO4)N2C(=O)CN1C1CCN(Cc2ccccc2)CC1`, the CC50 at 72 h in data set [1] was found to be 7 µM.

Turning to `O=C1[C@H]2Cc3c([nH]c4ccccc34)[C@@H](c3ccc4c(c3)OCO4)N2C(=O)CN1[C@@H]1CCN(Cc2ccc3c(c2)OCO3)C1`, in data set [7], the Ratio IC50 turned out to be 0.013. In addition, the CC50 at 72 h in data set [1] was found to be 78 µM. The IC50 in data set [4] stood at 0.007 µM; in the data set with Plasmodium falciparum [3] it was 0.53 µM. Moreover, in data set [2], the selectivity ratio was determined as 78.

In data set [1], `COc1cc([C@@H]2c3[nH]c4ccccc4c3C[C@@H]3C(=O)N([C@@H]4CCN(Cc5ccccc5)C4)CC(=O)N23)ccc1O` yielded a CC50 at 72 h of 23 µM. For the same compound, the IC50 is over 1 µM in data set [4] and 0.52 µM in the data set with Plasmodium falciparum [3]. In addition, the selectivity ratio in data set [2] amounted to 44.

Consider `O=C1[C@H]2Cc3c([nH]c4ccccc34)[C@@H](c3ccc4c(c3)OC(F)(F)O4)N2C(=O)CN1[C@@H]1CCN(Cc2ccccc2)C1`, for which, in data set [1], the midpoint of cytotoxicity, the CC50 at 72 h, lay at 8 µM. The selectivity ratio in data set [2] was determined as 1. In addition, in the data set with Plasmodium falciparum [3], half-maximal inhibition (IC50) required 11 µM.

For the compound `COc1ccc(CN2CC[C@@H](N3CC(=O)N4[C@H](c5ccc6c(c5)OCO6)c5[nH]c6ccccc6c5C[C@@H]4C3=O)C2)cc1`, the CC50 at 72 h in data set [1] was under 1 µM. Also, the selectivity ratio in data set [2] was under 1. For the same compound, the IC50 with Plasmodium falciparum [3] amounted to 10 µM.

Consider `COc1ccc([C@@H]2c3[nH]c4ccccc4c3C[C@@H]3C(=O)N([C@@H]4CCN(CCNC(=O)OC(C)(C)C)C4)CC(=O)N23)cc1OC`, for which the Ratio IC50 in data set [5] is over 13. In addition, the IC50 in the data set with Plasmodium falciparum [6] was 0.74 µM; in data set [4], over 10 µM. Further, in data set [1], the midpoint of cytotoxicity, the CC50 at 72 h, lay at 10 µM. Besides, the selectivity ratio in data set [2] came out at 10.

Regarding `CN1CC(=O)N2[C@H](c3ccc4c(c3)OCO4)c3[nH]c4ccccc4c3C[C@@H]2C1=O`, the CC50 at 72 h in data set [1] is over 64 µM. In addition, in the data set on Plasmodium falciparum [3], the IC50 was over 64 µM.

In data set [1], `O=C1[C@H]2Cc3c([nH]c4ccccc34)[C@@H](c3ccc4nonc4c3)N2C(=O)CN1[C@@H]1CCN(Cc2ccccc2)C1` showed a half-maximal cytotoxic concentration (CC50) at 72 h of over 64 µM. The selectivity ratio in data set [2] is over 10. Further, in the data set on Plasmodium falciparum [3], the IC50 turned out to be 6 µM.

In data set [1], `O=C1[C@H]2Cc3c([nH]c4ccccc34)[C@@H](c3ccc4c(c3)OCCO4)N2C(=O)CN1[C@@H]1CCN(Cc2ccccc2)C1` gave a CC50 at 72 h of over 64 µM. In addition, the selectivity ratio in data set [2] was over 13. This compound also registered an IC50 in the data set on Plasmodium falciparum [3] of 5 µM.

For the compound `O=C1[C@H]2Cc3c([nH]c4ccccc34)[C@@H](c3ccc4c(c3)OCO4)N2C(=O)CN1[C@@H]1CCN(Cc2ccccc2)C1`, the Ratio IC50 in data set [7] turned out to be 0.014. Moreover, in data set [1], it took 10 µM to reach half-maximal cytotoxicity (CC50 at 72 h). This compound showed an IC50 in data set [4] of 0.005 µM. In addition, the selectivity ratio in data set [2] came out at 20.

In data set [1], `O=C1[C@H]2Cc3c([nH]c4ccccc34)[C@@H](c3ccc4c(c3)OCO4)N2C(=O)CN1[C@@H]1CCN(CC2CCCC2)C1` came in with a CC50 at 72 h of 22 µM. Also, in data set [2], the selectivity ratio turned out to be 22. Moreover, it took 0.25 µM to reach half-maximal inhibition in the data set on Plasmodium falciparum [3] (IC50).

As for `O=C1[C@H]2Cc3c([nH]c4ccccc34)[C@@H](c3ccc(Cl)nc3)N2C(=O)CN1[C@@H]1CCN(Cc2ccccc2)C1`, the cytotoxic concentration (CC50) at 72 h in data set [1] was 14 µM. In data set [2], the selectivity ratio is 1. Besides, inhibition with Plasmodium falciparum [3] was half-maximal at 11 µM (IC50).

In data set [1], `O=C1[C@H]2Cc3c([nH]c4ccccc34)[C@@H](c3ccc4c(c3)OCO4)N2C(=O)CN1[C@@H]1CCN(Cc2ccccn2)C1` came in with a CC50 at 72 h of 13 µM. The IC50 in data set [4] came to 0.002 µM; in the data set with Plasmodium falciparum [3] it was 4 µM. For the same compound, in data set [2], the selectivity ratio is 13.
